# “Also recorded” adds a separate entry of the source.
# Legend:
# Lyn kinase = Lyn kinase activity in RPS19 knock-down zebrafish embryos; assay type: in vivo; conditions: 25 μM, 50 μM and 100 μM
# [1] = test system: RPS19 knock-down zebrafish embryos; experiment: Erythropoiesis in a zebrafish model of DBA using RPS19 morpholino (o-dianisidine staining); assay type: in vivo; conditions: for % improvement of erythropoiesis / % intensity of staining: injected 1 cell stage & aqueous exposure, RPS19 Mo
# Method: To evaluate the effect of Saracatinib, a Src kinase inhibitor (Lyn kinase) on improving erythropoiesis in a zebrafish model of DBA using RPS19 morpholino.
# Materials: Zebrafish (One celled stage), RPS19 morpholino (1 ng) and standard control morpholino were dissolved in ultrapure water. Saracatinib (Selleckchem; Cat no. 51006) was dissolved in 1% DMSO to achieve […], 50 μM and 100 μM concentrations. 0-dianisidine staining solution was made by dissolving 100 mg of 0-dianisidine in 70 mL ethanol, Acetate buffer (49 mL, 0.1 M Sodium acetate and 51 mL, 0.1 M acetic acid), 3% Hydrogen peroxide and ultrapure water; Phosphate buffer saline (PBS), Para formaldehyde (PFA), Tricaine methane sulfonate (ms-222) and Bleach solution (equal parts of 1% Potassium hydroxide and 3% Hydrogen peroxide) were used in the experimental procedures.
# (i) Control Mo, Egg water represents the zebrafish embryos which were injected with standard control morpholino, and 1% DMSO thriving in egg water, (ii) RPS19 Mo, Egg water represents wild type zebrafish embryos microinjected with 1 ng of RPS19 morpholino, and 1% DMSO; thriving in egg water, and (iii) RPS19 Mo+Saracatinib injected 1 cell stage and aqueous exposure represents zebrafish embryos which were microinjected with RPS19 morpholino and where Saracatinib was also microinjected at 1-cell stage along with adding Saracatinib in the aqueous phase or egg water.
# The wild type zebrafish with egg water were placed in separate wells and were microinjected with standard control morpholino and 1% DMSO, which acted as normal control (Control Mo, Egg water). The wild type zebrafish eggs were injected with 1 ng of RPS19 morpholino and 1% DMSO at 1-cell stage (RPS19 Mo, Egg water), and were incubated at 28.5° C. for 96 hours. Saracatinib was microinjected in the zebra fish at one cell stage and also exposed in the media (aqueous exposure) to achieve optimal concentrations of 25 μM, 50 μM and 100 μM (RPS19 Mo+Saracatinib injected 1 cell stage and aqueous exposure). The experiment was carried out in the 6-well plates for control (Control Mo, Egg water); morpholinos group (RPS19 Mo, Egg water) and Saracatinib treatment group (RPS19 Mo+Saracatinib injected 1 cell stage and aqueous exposure) respectively. The incubation of the zebrafish in various groups was carried out up to 96 hours at 28.5° C. and the embryos were visually observed for any phenotypic changes or mortality. The embryos were euthanized at the end of the study by using tricaine methane sulfonate (ms-222), and fixed in 4% PFA for 2 hours at room temperature. After fixing and washing the embryos thoroughly (3 times) in 1×PBS, o-dianisidine staining was carried out for 30 minutes at room temperature in the dark to assess haemoglobin concentration. Embryos were then washed 3 times in 1×PBS and incubated in bleach solution for 20 minutes at room temperature. Further washing of the embryos were also carried out in 1×PBS to avoid any unnecessary staining. Quantitation of o-dianisidine staining in zebrafish embryos.
# Haemoglobin quantification/total amount of the o-dianisidine staining on total embryo was calculated by using Image J software. The total embryo area and the intensity was noted by the software, by manually tracing the exact area of the embryo. The ratios of the intensity and the total embryo area was thus used to calculate the intensity per unit area which is then compared across groups (Control Mo, Egg water; RPS19 Mo, Egg water and RPS19 Mo+Saracatinib injected 1 cell stage and aqueous exposure). Percent intensity of staining of embryos was considered to be proportional to the haemoglobin concentration in each embryo and thus % improvement or recovery of erythropoiesis by administration of Saracatinib was further calculated.
# [2] = test system: Id1 expression in lung cancer cell lines; conditions: cited from earlier work
smiles,measurement,setting,value
"CN1CCN(CCOc2cc(OC3CCOCC3)c3c(Nc4c(Cl)ccc5c4OCO5)ncnc3c2)CC1 [Saracatinib, N-(5-chloro-1,3-benzodioxol-4-yl)-7-[2-(4-methyl-1-piperazinyl)ethoxy]-5-[(tetrahydro-2H-pyran-4-yl)oxy]-4-quinazolinamine]",Lyn kinase activity,Lyn kinase,decrease in the Lyn kinase activity
same,Erythropoiesis / erythropoietic defect (in words),"[1]; 25 μM, 50 μM and 100 μM, compared to RPS19 injected morpholinos, 96 hpf, o-dianisidine staining",rescue in haemopoietic defect; also recorded: dose related improvement in erythropoiesis; also recorded: improvement in the erythropoietic defect
same,% improvement of erythropoiesis,"[1]; Saracatinib 25 μM, 96 hpf",10.49%
same,% intensity of staining,"[1]; Saracatinib 25 μM, 96 hpf",2.646%
same,% improvement of erythropoiesis,"[1]; Saracatinib 50 μM, 96 hpf",36.75%
same,% intensity of staining,"[1]; Saracatinib 50 μM, 96 hpf",3.557%
same,% improvement of erythropoiesis,"[1]; Saracatinib 100 μM, 96 hpf",19.82%
same,% intensity of staining,"[1]; Saracatinib 100 μM, 96 hpf",3.18%
same,Haemoglobin concentration (in words),[1]; compared to zebrafish treated with RPS19 morpholino,increased haemoglobin concentration
same,Id1 expression,[2],downregulates the Id1 expression
